“And” between values parts separate entries of the source, which are not always exact repeats. Equal values may be shown once. “Also recorded” adds a separate entry of the source.
Experiments:
[1] = tested on: corneal neovascularization; set-up: method as in PMID 24240485; settings: administered on day 7 after suture placement; 1 week post-treatment; cited from earlier work
[2] = cited from earlier work
[3] = tested on: choroidal neovascularization (CNV); test: Rabbit 7-week CNV model, treatment 1 week after laser irradiation; format: in vivo
Description: From the day of laser irradiation to 7, 14, 21, 28, 35, 42, and 49 days after laser induced CNV, the rabbits were instilled with a 1% Mydriacyl eye drop and then anesthetized.
Fundus photography of retinal angiography was performed at the 42nd day from test substance treatment. Additionally, the eyes were then removed and fixed in 10% formalin solution for 24 h. The cornea, lens, and retina were removed. After washing with PBS, the […] and choroid complex (RPE-choroid complex) just remained from fixed eyes. The CNV area was stained with rhodamine conjugated isolectin B4 (IB4, Sigma-Aldrich, St. Louis, MO, USA) for 24 h at 4 °C. After staining, they were washed in PBS, flat-mounted on a glass slide, and then observed with a fluorescence microscope equipped with a digital camera and photographed. The CNV area was measured by ImageJ software.

[4] = tested on: choroidal neovascularization (CNV); test: Laser-induced CNV mouse model, treatment on the same day as laser irradiation (CNV area); format: in vivo; settings: day 7, vs vehicle (p < 0.001)
Description: Six-week-old male C57BL/6J mice were purchased from Central Laboratory Animal and then maintained in a specific pathogen free facility in Seoul National University. After deep anesthesia with zolazepam plus tiletamine (3.75 mg/kg, Virbac, Seoul, Korea) and xylazine (7.5 mg/kg, Bayer AG, Leverkusen, Germany), mice were treated with a customized laser indirect ophthalmoscope system (ILOODA) to break Bruch’s membrane (300 μm spot size, 300 mW power, and 100 ms exposure time) as described previously. After the laser irradiation, 10 μL PBS (vehicle), 1 ng of each peptide (RLYE, R(D)LYE and Ac-RLYE), or 145 ng of aflibercept was administered into the vitreous cavity of mice (six per each treatment group) at the same day as laser irradiation. At 7 days after the laser irradiation, the RPE-choroid-scleral complexes were prepared from the enucleated eyes. After immunostaining of the RPE-choroid-scleral complexes with isolectin B4 conjugated with Alexa Fluor-594 (1:100; cat. No. I21413, Invitrogen, Waltham, MA, USA), the CNV area was quantitatively analyzed by the measurement of the area using the ImageJ software. All animal experiments were carried out according to the guidelines of the Ethics Committee for Protection and Use of Experimental Animals of Seoul National University.

[5] = tested on: choroidal neovascularization (CNV); test: Rabbit 4-week laser-induced CNV model (retinal fluorescence intensity); format: in vivo; settings: 2000 µg/eye intravitreal; only until day 14 after CNV induction
Text: From the day of laser irradiation to 7, 14, 21, and 28 days after laser induced CNV, the rabbits were instilled with a 1% Mydriacyl eye drop and then anesthetized.

[6] = tested on: VEGF-induced angiogenesis; set-up: method as in PMID 10747021; settings: slow-releasing hydrogel implants in corneal stroma; assessed on day 12; cited from earlier work
[7] = tested on: choroidal neovascularization (CNV); test: Therapeutic laser-induced CNV mouse model, treatment 10 days after laser irradiation (CNV area); format: in vivo; settings: 1 µL of 1.5 mM intravitreal 10 days after laser irradiation; day 4 after treatment
Description: […]. Here, the same amount of saline was injected into the control group. After 4 days (14 days after the laser irradiation), an experiment for analyzing a therapeutic effect was carried out by extracting the eyeballs of the mice. The extracted eyeballs were fixed in 4% paraformaldehyde for 12 h, and embedded in paraffin. Sections with a thickness of 4 μm were prepared from paraffin tissue, and subjected to H&E staining. Afterward, an image of a section with the largest choroidal neovascular membrane area was taken from each subject, and the area of the choroidal neovascular membrane was quantitatively analyzed using ImageJ program (NIH, Bethesda, Rockville, MD, USA). In the saline-injected control group, the average of the choroidal neovascular areas was represented as 100%, and a therapeutic effect of each treatment group was analyzed.

[8] = cited from earlier work; remark: listed apart in the source
retinal vascular leakage = test: Streptozotocin-induced diabetic mouse model, retinal vascular leakage; format: in vivo; settings: 1 µL of 1.5 mM intravitreal; 24 h after treatment; vs vehicle; RLYE 0.01 < p < 0.05, Ac-RLYE p < 0.01
Description: To prepare a streptozotocin-induced diabetic mouse model, a freshly prepared STZ solution (100 mM) in a citrate buffer (100 mM, pH 4.5) was injected intraperitoneally at 150 mg/kg into the mice, and to prevent hypoglycemic shock, 10% sucrose was sufficiently provided. After two days, blood glucose was measured using an Accu-Chek Performa blood glucose meter (Roche Diagnostics GmbH, Mannheim, Germany), and when non-fasting blood glucose within 1 to 2 weeks was maintained at 300 mg/dl or more, the mice were used as diabetic animal models. […]. Here, the same amount of PBS was injected into the control group. The peptide was injected, and after 24 h, 1 mL (1.25 mg) of FITC-dextran (250 kDa) was injected into the left ventricle of each mouse to allow circulation for approximately 5 min. The mice were euthanized by cervical dislocation, and the eyeballs were extracted and fixed in 4% paraformaldehyde at room temperature for 1 h. The retina was isolated from the fixed eyeball to prepare a retinal flat mount, and vascular leakage was observed under a confocal microscope. Meanwhile, the fluorescence of FITC-dextran leaked from retinal vessels was measured using Fluoview software.

Substance: ranibizumab: an anti-VEGF therapy (anti-VEGF antibody), positive control
- degree of reduction of the CNV area compared with vehicle [1]: 53%–60%
- t1/2 (ocular) [2]: 52.4 h
- volume of distribution [2]: 2.7 mL

Substance: bevacizumab: anti-VEGF antibody
- degree of reduction of the CNV area compared with vehicle [1]: 46%–60%

Substance: aflibercept: fusion protein of ligand-binding elements of VEGFR-1 and VEGFR-2 fused to the Fc portion of IgG
- retinal fluorescence intensity vs vehicle control ([3]; 2000 µg/eye intravitreal on day 7 after laser, days 7, 14, 21, 28, 35 and 42 after administration): significantly lower
- CNV lesions (CNV area) compared with vehicle control, reduced to ([3]; aflibercept 2000 µg/eye, day 42 after drug administration): 38.9% and 36%
- CNV area ([4]; 145 ng/1 µL/eye intravitreal on day of laser irradiation): significantly reduced
- retinal fluorescence intensity vs vehicle group [5]: significantly reduced
- t1/2 (ocular) [2]: 94.1 h
- volume of distribution [2]: 1.4 mL

Substance: ATWLPPR
- VEGF-induced angiogenesis [6]: abolish VEGF-induced angiogenesis

Substance: Arg-Leu-Tyr-Glu (RLYE; printed: Arg-Leu-Tyr-Glu) [antiangiogenic tetrapeptide derived from the human plasminogen kringle-5 domain]
- degree of CNV area reduction compared with vehicle [7]: 55%
- occurrence of CNV (CNV area) [7]: significantly reduced the CNV area; also recorded: effectively reduced
- CNV area ([4]; 1 ng/1 µL/eye intravitreal on day of laser irradiation): significantly reduced
- serum half-life [8]: 1.2 h
- retinal vascular leakage (FITC-dextran) (retinal vascular leakage): effectively inhibited
